# Data published in ChEMBL document CHEMBL2046343, “'Click' synthesis of a triazole-based inhibitor of Met functions in cancer cells” (Bioorg Med Chem Lett, 2012).
# pIC50: −log10 of the molar value. Calls of active or inactive are those of the source. The rule behind the calls is not given here.
# Experiments:
# MDCK = assay: Cytotoxicity against MDCK cells at IC50; format: cell-based, Canis lupus familiaris; conditions: dog
# [1] = (§1) Cytotoxicity against human GTL16 cells expressing MET assessed as inhibition of anchorage-independent cell growth treated every 3 days for 2 weeks by MTT assay; format: functional, cell-based; conditions: GTL 16
# NCI-H1437 = assay: Cytotoxicity against human NCI-H1437 cells assessed as inhibition of anchorage-independent cell growth treated every 3 days for 2 weeks by MTT assay; format: functional, cell-based
# GTL 16 = assay: as §1; format: functional, cell-based
# H1437 = assay: Inhibition of HGF-induced Met R988C mutant phosphorylation at Tyr1234 and Tyr1235 in human H1437 cells at 10 uM by immunoblotting
# [2] = molecular target: Hepatocyte growth factor receptor (Canis lupus familiaris) (UniProt Q75ZY9); assay: Inhibition of HGF-induced Met phosphorylation at Tyr1234 and Tyr1235 in MDCK cells at 10 uM by immunoblotting; format: cell-based
# Hepatocyte growth factor receptor (Canis lupus familiaris), sequence (Q75ZY9 whole entry): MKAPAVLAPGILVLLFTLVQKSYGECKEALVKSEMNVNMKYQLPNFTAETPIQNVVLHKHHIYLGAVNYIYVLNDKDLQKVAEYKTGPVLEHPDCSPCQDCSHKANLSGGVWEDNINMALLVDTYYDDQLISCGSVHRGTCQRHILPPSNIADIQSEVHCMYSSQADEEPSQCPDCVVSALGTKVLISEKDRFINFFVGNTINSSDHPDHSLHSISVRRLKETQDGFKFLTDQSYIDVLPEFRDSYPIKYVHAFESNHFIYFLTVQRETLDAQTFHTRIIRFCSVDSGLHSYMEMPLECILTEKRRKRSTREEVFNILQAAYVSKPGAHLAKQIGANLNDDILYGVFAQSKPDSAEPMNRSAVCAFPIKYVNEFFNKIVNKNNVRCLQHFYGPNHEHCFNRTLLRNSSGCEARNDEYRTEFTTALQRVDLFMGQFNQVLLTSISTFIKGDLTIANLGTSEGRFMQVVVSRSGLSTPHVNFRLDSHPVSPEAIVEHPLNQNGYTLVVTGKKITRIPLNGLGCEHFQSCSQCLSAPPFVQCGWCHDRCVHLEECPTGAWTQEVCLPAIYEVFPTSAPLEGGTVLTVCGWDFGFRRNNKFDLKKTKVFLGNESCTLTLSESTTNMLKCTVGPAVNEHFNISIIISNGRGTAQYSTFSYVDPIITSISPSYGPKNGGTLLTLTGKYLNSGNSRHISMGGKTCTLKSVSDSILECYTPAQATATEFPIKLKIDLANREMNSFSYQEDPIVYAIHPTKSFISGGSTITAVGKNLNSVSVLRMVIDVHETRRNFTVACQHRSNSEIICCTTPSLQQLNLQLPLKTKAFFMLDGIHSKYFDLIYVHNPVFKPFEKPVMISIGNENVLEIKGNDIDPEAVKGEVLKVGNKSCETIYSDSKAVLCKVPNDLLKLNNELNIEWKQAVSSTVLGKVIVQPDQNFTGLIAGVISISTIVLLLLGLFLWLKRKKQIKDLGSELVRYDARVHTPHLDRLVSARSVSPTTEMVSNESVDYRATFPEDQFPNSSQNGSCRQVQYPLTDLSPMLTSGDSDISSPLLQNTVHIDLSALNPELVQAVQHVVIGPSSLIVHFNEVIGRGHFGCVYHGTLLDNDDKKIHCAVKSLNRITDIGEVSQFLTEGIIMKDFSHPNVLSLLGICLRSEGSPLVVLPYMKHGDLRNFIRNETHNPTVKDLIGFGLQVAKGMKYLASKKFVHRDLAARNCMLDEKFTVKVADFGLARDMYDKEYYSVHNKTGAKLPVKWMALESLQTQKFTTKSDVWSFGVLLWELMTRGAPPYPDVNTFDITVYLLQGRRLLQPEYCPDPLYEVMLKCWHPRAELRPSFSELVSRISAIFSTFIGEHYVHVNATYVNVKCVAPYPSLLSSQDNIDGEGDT
inhibition [2],Compound,Activity (MDCK),pIC50 [1],growth inhibition (GI) (NCI-H1437),growth inhibition (GI) (GTL 16),inhibition (H1437)
–,O=C(Cc1cc(C(F)(F)F)cc(C(F)(F)F)c1)N[C@@H](Cc1ccccc1)C(=O)Nc1ccc(-c2cn3c(n2)sc2ccccc23)cc1,Non-toxic,6.10,–,–,–
–,O=C(Cc1cc(C(F)(F)F)cc(C(F)(F)F)c1)N[C@H](Cc1ccccc1)C(=O)Nc1ccc(-c2cn3c(n2)sc2ccccc23)cc1,Non-toxic,5.92,–,–,–
Active,O=C(Cc1cc(C(F)(F)F)cc(C(F)(F)F)c1)NC(Cc1ccccc1)c1cn(-c2ccc(-c3cn4c(n3)sc3ccccc34)cc2)nn1 (stereo not given),Non-toxic,5.07,Dose-dependent effect,Dose-dependent effect,Active
